In US8802597B2, “Herbicidal pyrimidines” (E I du Pont de Nemours and Company, priority 2003, dated 2014):
Read-outs that look alike come from different tables or passages of the source.

Key:
Format in all cases: in vivo
[1] = system: barnyardgrass (Echinochloa crus-galli); experiment: Test B flooded paddy test; settings: Echinochloa crus-galli, Flood, scale 0 to 100, read-out: Plant response rating, Barnyardgrass; for pest or weed control at 125 g/ha: 125 g ai/ha; for pest or weed control at 500 g/ha: 500 g ai/ha
Method in brief: (§1)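 Visual injury scoring (0 = no effect, 100 = complete control) versus controls made 13 to 15 days after treatment in the greenhouse. Test species were grown in flooded paddy to the 2-leaf stage: rice, barnyardgrass, umbrella sedge, duck salad.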

[2] = system: duck salad (Heteranthera limosa); experiment: Test B flooded paddy test; settings: Heteranthera limosa, Flood, scale 0 to 100, read-out: Plant response rating, Ducksalad; for pest or weed control at 125 g/ha: 125 g ai/ha; for pest or weed control at 500 g/ha: 500 g ai/ha
Method in brief: as §1

rice (Oryza sativa) = experiment: Test B flooded paddy test; settings: Oryza sativa, Flood, scale 0 to 100, read-out: Plant response rating, Rice; for plant injury at 125 g/ha: 125 g ai/ha; for plant injury at 500 g/ha: 500 g ai/ha
Method in brief: as §1

[3] = system: umbrella sedge (Cyperus difformis); experiment: Test B flooded paddy test; settings: Cyperus difformis, Flood, scale 0 to 100, read-out: Plant response rating, Sedge, Umbrella; for pest or weed control at 125 g/ha: 125 g ai/ha; for pest or weed control at 500 g/ha: 500 g ai/ha
Method in brief: as §1

[4] = system: Surinam grass (Brachiaria decumbens); experiment: Test B pre/postemergence; settings: Urochloa decumbens; for pest or weed control at 4 g/ha: 4 g ai/ha; for pest or weed control at 62 g/ha: 62 g ai/ha
Method in brief: (§2)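 Formulation: non-phytotoxic solvent blend with surfactant. Timing: preemergence on seeds, postemergence at 1- to 4-leaf (2–18 cm). Assessment: visual, 0–100 against controls, after 13–15 days' greenhouse growth.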

[5] = system: barnyardgrass (Echinochloa crus-galli); experiment: Test B pre/postemergence; settings: Echinochloa crus-galli, scale 0 to 100 (0 no effect, 100 complete control); for pest or weed control at 4 g/ha: 4 g ai/ha; for pest or weed control at 62 g/ha: 62 g ai/ha
Method in brief: as §2

[6] = system: cocklebur (Xanthium strumarium); experiment: Test B pre/postemergence; settings: Xanthium strumarium; for pest or weed control at 4 g/ha: 4 g ai/ha; for pest or weed control at 62 g/ha: 62 g ai/ha
Method in brief: as §2

corn (Zea mays) = experiment: Test B pre/postemergence; settings: Zea mays
Method in brief: as §2

[7] = system: crabgrass (Digitaria sanguinalis); experiment: Test B pre/postemergence; settings: Digitaria sanguinalis; for pest or weed control at 4 g/ha: 4 g ai/ha; for pest or weed control at 62 g/ha: 62 g ai/ha
Method in brief: as §2

[8] = system: giant foxtail (Setaria faberii); experiment: Test B pre/postemergence; settings: Setaria faberi; for pest or weed control at 4 g/ha: 4 g ai/ha; for pest or weed control at 62 g/ha: 62 g ai/ha
Method in brief: as §2

[9] = system: lambsquarters (Chenopodium album); experiment: Test B pre/postemergence; settings: Chenopodium album; for pest or weed control at 4 g/ha: 4 g ai/ha; for pest or weed control at 62 g/ha: 62 g ai/ha
Method in brief: as §2

[10] = system: morningglory (Ipomoea coccinea); experiment: Test B pre/postemergence; settings: Ipomoea; for pest or weed control at 4 g/ha: 4 g ai/ha; for pest or weed control at 62 g/ha: 62 g ai/ha
Method in brief: as §2

[11] = system: pigweed (Amaranthus retroflexus); experiment: Test B pre/postemergence; settings: Amaranthus retroflexus; for pest or weed control at 4 g/ha: 4 g ai/ha; for pest or weed control at 62 g/ha: 62 g ai/ha
Method in brief: as §2

[12] = system: velvetleaf (Abutilon theophrasti); experiment: Test B pre/postemergence; settings: Abutilon theophrasti; for pest or weed control at 4 g/ha: 4 g ai/ha; for pest or weed control at 62 g/ha: 62 g ai/ha
Method in brief: as §2

[13] = system: wheat (Triticum aestivum); experiment: Test B pre/postemergence; settings: Triticum aestivum, scale 0 to 100 (0 no effect, 100 complete control); for plant injury at 4 g/ha: 4 g ai/ha; for plant injury at 62 g/ha: 62 g ai/ha
Method in brief: as §2

[14] = system: blackgrass (Alopecurus myosuroides); experiment: Test B postemergence; settings: Alopecurus myosuroides, post-emergence, scale 0 to 100 (0 no effect, 100 complete control), read-out: Blackgrass plant response rating
Method in brief: as §2

wild oat (Avena fatua) = experiment: Test B postemergence; settings: Avena fatua, post-emergence, scale 0 to 100 (0 no effect, 100 complete control), read-out: Oat, Wild plant response rating
Method in brief: as §2

[15] = post-emergence, Postemergence, scale 0 to 100 (0 no effect, 100 complete control), read-out: Surinam Grass plant response rating
[16] = post-emergence, Postemergence, read-out: Barnyardgrass plant response rating
[17] = pre-emergence, Preemergence, read-out: Plant response rating, Barnyardgrass
[18] = post-emergence, Postemergence, scale 0 to 100 (0 no effect, 100 complete control), read-out: Cocklebur plant response rating
[19] = post-emergence, Postemergence, scale 0 to 100 (0 no effect, 100 complete control), read-out: Crabgrass plant response rating
[20] = post-emergence, Postemergence, scale 0 to 100 (0 no effect, 100 complete control), read-out: Foxtail, Giant plant response rating
[21] = post-emergence, Postemergence, scale 0 to 100 (0 no effect, 100 complete control), read-out: Lambsquarters plant response rating
[22] = post-emergence, Postemergence, scale 0 to 100 (0 no effect, 100 complete control), read-out: Morningglory plant response rating
[23] = post-emergence, Postemergence, scale 0 to 100 (0 no effect, 100 complete control), read-out: Pigweed plant response rating
[24] = post-emergence, Postemergence, scale 0 to 100 (0 no effect, 100 complete control), read-out: Velvetleaf plant response rating
[25] = post-emergence, Postemergence, read-out: Wheat plant response rating
[26] = pre-emergence, Preemergence, read-out: Plant response rating, Wheat

COC(=O)c1nc(-c2ccc(Cl)cc2)nc(N)c1Cl [Compound 58, methyl 6-amino-5-chloro-2-(4-chlorophenyl)-4-pyrimidinecarboxylate]
pest or weed control at 125 g/ha [1]: 0% | pest or weed control at 500 g/ha [1]: 0% | pest or weed control at 125 g/ha [2]: 100% | pest or weed control at 500 g/ha [2]: 100% | plant injury at 125 g/ha (rice (Oryza sativa)): 0% | plant injury at 500 g/ha (rice (Oryza sativa)): 0% | pest or weed control at 125 g/ha [3]: 90% | pest or weed control at 500 g/ha [3]: 100%

COC(=O)c1nc(C2CC2)nc(N)c1OC [Compound 59]
pest or weed control at 125 g/ha [1]: 0% | pest or weed control at 500 g/ha [1]: 0% | pest or weed control at 125 g/ha [2]: 0% | pest or weed control at 500 g/ha [2]: 0% | plant injury at 125 g/ha (rice (Oryza sativa)): 0% | plant injury at 500 g/ha (rice (Oryza sativa)): 0% | pest or weed control at 125 g/ha [3]: 0% | pest or weed control at 500 g/ha [3]: 0%

Nc1nc(-c2ccc(Cl)cc2)nc(C(=O)O)c1Cl [Compound 65, 6-amino-5-chloro-2-(4-chlorophenyl)-4-pyrimidinecarboxylic acid]
pest or weed control at 4 g/ha [4, 15]: 20% | pest or weed control at 62 g/ha [4, 15]: 80% | pest or weed control at 4 g/ha ([4]; pre-emergence, Preemergence, scale 0 to 100 (0 no effect, 100 complete control), read-out: Plant response rating, Surinam Grass): 0% | pest or weed control at 62 g/ha ([4]; pre-emergence, Preemergence, scale 0 to 100, 0 no effect, 100 complete control, read-out: Plant response rating, Surinam Grass): 40% | pest or weed control at 4 g/ha [5, 16]: 20% | pest or weed control at 62 g/ha [5, 16]: 70% | pest or weed control at 4 g/ha [5, 17]: 0% | pest or weed control at 62 g/ha [5, 17]: 40% | pest or weed control at 4 g/ha [6, 18]: 80% | pest or weed control at 62 g/ha [6, 18]: 100% | pest or weed control at 4 g/ha ([6]; pre-emergence, Preemergence, scale 0 to 100 (0 no effect, 100 complete control), read-out: Plant response rating, Cocklebur): 10% | pest or weed control at 62 g/ha ([6]; pre-emergence, Preemergence, scale 0 to 100, 0 no effect, 100 complete control, read-out: Plant response rating, Cocklebur): 80% | plant injury at 4 g/ha (corn (Zea mays); post-emergence, Postemergence, 4 g ai/ha, scale 0 to 100 (0 no effect, 100 complete control), read-out: Corn plant response rating): 10% | plant injury at 62 g/ha (corn (Zea mays); post-emergence, Postemergence, 62 g ai/ha, scale 0 to 100 (0 no effect, 100 complete control), read-out: Corn plant response rating): 80% | Corn plant response rating (crop injury, 0 = no effect, 100 = complete kill) at 4 g/ha (corn (Zea mays); pre-emergence, Preemergence, 4 g ai/ha, scale 0 to 100 (0 no effect, 100 complete control)): 0% | Corn plant response rating (crop injury, 0 = no effect, 100 = complete kill) at 62 g/ha (corn (Zea mays); pre-emergence, Preemergence, 62 g ai/ha, scale 0 to 100, 0 no effect, 100 complete control): 0% | pest or weed control at 4 g/ha [7, 19]: 20% | pest or weed control at 62 g/ha [7, 19]: 80% | pest or weed control at 4 g/ha ([7]; pre-emergence, Preemergence, scale 0 to 100 (0 no effect, 100 complete control), read-out: Plant response rating, Crabgrass): 20% | pest or weed control at 62 g/ha ([7]; pre-emergence, Preemergence, scale 0 to 100, 0 no effect, 100 complete control, read-out: Plant response rating, Crabgrass): 70% | pest or weed control at 4 g/ha [8, 20]: 40% | pest or weed control at 62 g/ha [8, 20]: 70% | pest or weed control at 4 g/ha ([8]; pre-emergence, Preemergence, scale 0 to 100 (0 no effect, 100 complete control), read-out: Plant response rating, Foxtail, Giant): 0% | pest or weed control at 62 g/ha ([8]; pre-emergence, Preemergence, scale 0 to 100, 0 no effect, 100 complete control, read-out: Plant response rating, Foxtail, Giant): 30% | pest or weed control at 4 g/ha [9, 21]: 80% | pest or weed control at 62 g/ha [9, 21]: 100% | pest or weed control at 4 g/ha ([9]; pre-emergence, Preemergence, scale 0 to 100 (0 no effect, 100 complete control), read-out: Plant response rating, Lambsquarters): 30% | pest or weed control at 62 g/ha ([9]; pre-emergence, Preemergence, scale 0 to 100, 0 no effect, 100 complete control, read-out: Plant response rating, Lambsquarters): 90% | pest or weed control at 4 g/ha [10, 22]: 70% | pest or weed control at 62 g/ha [10, 22]: 80% | pest or weed control at 4 g/ha ([10]; pre-emergence, Preemergence, scale 0 to 100 (0 no effect, 100 complete control), read-out: Plant response rating, Morningglory): 0% | pest or weed control at 62 g/ha ([10]; pre-emergence, Preemergence, scale 0 to 100, 0 no effect, 100 complete control, read-out: Plant response rating, Morningglory): 30% | pest or weed control at 4 g/ha [11, 23]: 70% | pest or weed control at 62 g/ha [11, 23]: 100% | pest or weed control at 4 g/ha ([11]; pre-emergence, Preemergence, scale 0 to 100 (0 no effect, 100 complete control), read-out: Plant response rating, Pigweed): 20% | pest or weed control at 62 g/ha ([11]; pre-emergence, Preemergence, scale 0 to 100, 0 no effect, 100 complete control, read-out: Plant response rating, Pigweed): 100% | pest or weed control at 4 g/ha [12, 24]: 50% | pest or weed control at 62 g/ha [12, 24]: 90% | pest or weed control at 4 g/ha ([12]; pre-emergence, Preemergence, scale 0 to 100 (0 no effect, 100 complete control), read-out: Plant response rating, Velvetleaf): 0% | pest or weed control at 62 g/ha ([12]; pre-emergence, Preemergence, scale 0 to 100, 0 no effect, 100 complete control, read-out: Plant response rating, Velvetleaf): 70% | plant injury at 4 g/ha [13, 25]: 0% | plant injury at 62 g/ha [13, 25]: 50% | plant injury at 4 g/ha [13, 26]: 20% | plant injury at 62 g/ha [13, 26]: 80% | pest or weed control at 4 g/ha ([14]; 4 g ai/ha): 20% | pest or weed control at 62 g/ha ([14]; 62 g ai/ha): 70% | pest or weed control at 4 g/ha (wild oat (Avena fatua); 4 g ai/ha): 0% | pest or weed control at 62 g/ha (wild oat (Avena fatua); 62 g ai/ha): 40%
